{
  "source": "patent US4965194A",
  "about": "“Pyruvate oxidase and an analytical method using the same” (Toyo Boseki Kabushiki Kaisha, priority 1986, dated 1990)",
  "system": "pyruvate oxidase (EC 1.2.3.3) of Lactobacillus sp. TE6103 (FERM BP-1419)",
  "experiment": "Km determination of the thermostable pyruvate oxidase (physicochemical characteristics of the enzyme)",
  "assay_type": "biochemical",
  "details": "purified enzyme from Lactobacillus sp. TE6103; activity assay at 37° C., pH 7.0, with thiamine pyrophosphate and FAD; read-out: Km for pyruvic acid",
  "experimental": "The activity of the resulting pyruvate oxidase can be measured as follows:\nFirst, from the mixture of the ingredients listed above, 2.5 ml is sampled and placed in a test tube, and 0.5 ml of a 0.3 M solution of potassium pyruvate is added thereto. The mixture is then heated at 37° C. for 5 minutes. To this, 0.05 ml of the enzyme solution is added, and the mixture gently stirred; then, the changes (ΔOD) in the optical density at 500 nm over 1 minute of the mixture at 37° C. are monitored in a spectrophotometer against water. Next, in place of the enzyme solution, 0.05 ml of a 50 mM potassium phosphate buffer (pH 7.0) is used, and the same steps as above are followed to measure the changes (ΔOD) in optical density over 1 minute; this is the blank test. Under these conditions, the enzyme activity of pyruvate oxidase that produces 1 μmol of hydrogen peroxide is taken to be one unit (U).\nThe physicochemical characteristics of the enzyme activity of this invention will be shown below.",
  "data": [
    {"smiles": "CC(=O)C(=O)O", "note": "[pyruvic acid]", "values": [
      {"measurement": "Km", "value": "~400", "unit": "µM"}
    ]}
  ]
}
